The record followed here is patent publication US20200165225A1, “BACE1 INHIBITORS FOR TREATMENT OF ALZHEIMER'S DISEASE” (NantBio, Inc., priority 2017, published 2020).

A word on the pIC50: it is the IC50 on a negative log10 scale, so that one unit is a factor of ten. Read a high pIC50 as a small IC50.

In this assay the target is BACE-1 (Homo sapiens, UniProt P56817). Briefly: Inhibition of BACE cleavage of a P5-P5′ fluorescent peptide substrate containing the Swedish mutation cleavage site. As to conditions: fluorogenic P5-P5′ BACE-1 substrate; 30 minutes preincubation at room temperature; signal read every 30 minutes at 25° C. for 2 hr. It counts as biochemical. As to the method: The compounds were evaluated for inhibition of BACE cleavage of a P5-P5′ fluorescent peptide substrate containing the Swedish mutation cleavage site. In detail, 4 μL of assay buffer was added to each well, followed by 2 μL of BACE-1 diluted in assay buffer to 7.5 ng/uL. Then, 2 μL of compound, at concentrations along an 11 pt. two-fold dilution series starting at 10 uM, or 0.5 uM, were added to the appropriated wells and incubated for 30 minutes at room temperature. For all dilutions of inhibitor, the compound stock solutions of 10 mM in DMSO were diluted to 50 uM in water; subsequent dilutions were in 0.5% DMSO. Afterwards, 2 μL of fluorogenic P5-P5′ BACE-1 substrate, diluted to 50 μM in assay buffer, were added to each well, after which the signal generated was read every 30 minutes at 25° C. for 2 hr.

pIC50: −log10 of the molar value.

BACE-1, sequence (P56817 46-501): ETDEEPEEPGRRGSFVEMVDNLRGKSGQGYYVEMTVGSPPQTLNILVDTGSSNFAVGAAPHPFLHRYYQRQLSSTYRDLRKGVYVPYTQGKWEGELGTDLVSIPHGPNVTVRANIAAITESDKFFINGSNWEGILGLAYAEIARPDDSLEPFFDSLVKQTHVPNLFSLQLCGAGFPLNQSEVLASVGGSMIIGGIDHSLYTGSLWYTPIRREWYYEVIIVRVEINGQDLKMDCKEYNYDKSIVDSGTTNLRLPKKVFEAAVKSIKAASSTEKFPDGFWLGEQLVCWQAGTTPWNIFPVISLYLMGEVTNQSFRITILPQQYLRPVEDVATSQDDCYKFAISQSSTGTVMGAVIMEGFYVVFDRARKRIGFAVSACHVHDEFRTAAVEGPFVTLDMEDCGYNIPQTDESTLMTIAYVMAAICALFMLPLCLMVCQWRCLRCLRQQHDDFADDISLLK

Compound `CN1C(=O)C(c2cccc(-c3cncnc3)c2)(c2cccc(C(F)(F)F)n2)N=C1N` (centres unmarked) [Compound 5] gave a pIC50 of 5.10.

Compound `CN1C(=O)C(c2ccc(C(F)(F)F)nc2)(c2cccc(-c3cncnc3)c2)N=C1N` (centres unmarked) [Compound 4] had a pIC50 of 6.01.

As to `Cc1cc(C2(c3ccnc(C(F)(F)F)c3)N=C(N)N(C)C2=O)ccc1OC(F)F` (centres unmarked) [Compound 3], the pIC50 is 5.01. This pIC50 lies 1.00 log units lower than the previous one.

In turn, `CN1C(=O)C(c2ccc(C(F)F)nc2)(c2cccc(-c3cncnc3)c2)N=C1N` (centres unmarked) [Compound 6] showed a pIC50 of 6.03.

Regarding `CN1C(=O)C(c2cccc(-c3cncnc3)c2)(c2cccc(C(F)F)c2)N=C1N` (centres unmarked) [Compound 8], the pIC50 was 6.77.

`CN1C(=O)C(c2cccc(-c3cncnc3)c2)(c2cccc(C(F)F)n2)N=C1N` (centres unmarked) [Compound 7] showed a pIC50 of 6.30.

Compound `CN1C(=O)C(c2cccc(-c3cncnc3)c2)(c2ccnc(C(F)(F)F)c2)N=C1N` (centres unmarked) [Compound 2] had a pIC50 of 7.15.

`CN1C(=O)C(c2cccc(-c3cncnc3)c2)(c2ccnc(C(F)F)c2)N=C1N` (centres unmarked) [Compound 1] showed a pIC50 of 7.52.
